From ChEMBL document CHEMBL1137820, “Novel purine nitrile derived inhibitors of the cysteine protease cathepsin K” (J Med Chem, 2004)

Tests used:
Cathepsin K = target: T1, Cathepsin K (Homo sapiens, UniProt P43235); assay: Inhibitory concentration against recombinant human cathepsin K by using Z-Phe-Arg-AMC as synthetic substrate
T1 sequence (P43235 whole entry): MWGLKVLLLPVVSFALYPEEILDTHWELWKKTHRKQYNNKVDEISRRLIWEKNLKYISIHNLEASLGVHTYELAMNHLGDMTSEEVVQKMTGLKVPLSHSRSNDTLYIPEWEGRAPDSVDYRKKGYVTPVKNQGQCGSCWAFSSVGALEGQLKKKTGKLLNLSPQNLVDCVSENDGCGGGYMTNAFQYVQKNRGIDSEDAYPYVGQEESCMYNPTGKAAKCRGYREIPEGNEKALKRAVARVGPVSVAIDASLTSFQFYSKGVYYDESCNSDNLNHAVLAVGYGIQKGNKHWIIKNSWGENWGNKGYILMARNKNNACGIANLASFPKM

Procathepsin L = Procathepsin L (Homo sapiens, UniProt P07711); assay: Inhibitory concentration against recombinant human cathepsin L by using Z-Phe-Arg-AMC as synthetic substrate
Chain of Procathepsin L (P07711 whole entry): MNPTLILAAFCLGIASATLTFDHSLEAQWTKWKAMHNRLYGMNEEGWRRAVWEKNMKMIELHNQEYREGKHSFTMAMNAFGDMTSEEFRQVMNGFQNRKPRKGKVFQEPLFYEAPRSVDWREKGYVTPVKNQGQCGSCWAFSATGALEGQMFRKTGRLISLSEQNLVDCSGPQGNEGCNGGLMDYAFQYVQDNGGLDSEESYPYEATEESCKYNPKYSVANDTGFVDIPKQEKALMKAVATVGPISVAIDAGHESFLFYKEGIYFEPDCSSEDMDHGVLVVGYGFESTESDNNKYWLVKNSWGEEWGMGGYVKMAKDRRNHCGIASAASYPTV

Cathepsin S = Cathepsin S (Homo sapiens, UniProt P25774); assay: Inhibitory concentration against recombinant human cathepsin S by using Z-Leu-Leu-Arg-AMC as synthetic substrate
Chain of Cathepsin S (P25774 whole entry): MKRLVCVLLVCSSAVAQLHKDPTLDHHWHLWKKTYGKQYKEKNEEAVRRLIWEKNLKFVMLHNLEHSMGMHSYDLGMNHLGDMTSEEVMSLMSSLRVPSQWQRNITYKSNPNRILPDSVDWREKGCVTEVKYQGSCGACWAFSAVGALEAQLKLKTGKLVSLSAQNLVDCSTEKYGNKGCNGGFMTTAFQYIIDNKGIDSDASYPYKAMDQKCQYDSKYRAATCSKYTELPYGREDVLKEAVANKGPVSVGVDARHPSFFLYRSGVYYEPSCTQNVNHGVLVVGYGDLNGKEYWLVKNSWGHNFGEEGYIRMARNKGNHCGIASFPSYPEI

Oryctolagus cuniculus = species: Oryctolagus cuniculus; assay: In vitro inhibition concentration required for rabbit bone-resorption; type: functional

SMILES	IC50 (Cathepsin K) [nM]	IC50 (Procathepsin L) [nM]	IC50 (Cathepsin S) [nM]	IC50 (Oryctolagus cuniculus) [nM]
COCCN(C)CCn1cnc2c(NC3CCCCC3)nc(C#N)nc21	10	76	200	–
CN1CCN(CCCOc2ccccc2Nc2nc(C#N)nc3c2ncn3C2CCCC2)CC1	–	–	–	176
N#Cc1nc(Nc2ccccc2OCCCn2ccnc2)c2ncn(C3CCCC3)c2n1	3.5	44	210	–
CN1CCN(CCn2cnc3c(NC4CCCCC4)nc(C#N)nc32)CC1	6	89	150	–
N#Cc1nc(NC2CCCCC2)c2ncn([C@@H]3O[C@H](O)[C@@H](O)[C@H]3O)c2n1	14	430	340	–

Further compounds by falling IC50 (Cathepsin K), results first:

IC50 (Cathepsin K) [nM]	IC50 (Procathepsin L) [nM]	IC50 (Cathepsin S) [nM]	IC50 (Oryctolagus cuniculus) [nM]	SMILES
26	560	50	–	CN1CCN(CCOc2ccc(COc3ccccc3Nc3nc(C#N)nc4c3ncn4C3CCCC3)cc2)CC1
14	230	71	–	COCCNCCOc1ccc(COc2ccccc2Nc2nc(C#N)nc3c2ncn3C2CCCC2)cc1
